# In ChEMBL document CHEMBL5346973 (J Med Chem, 2023):
# Where a SMILES comes first, the peptide text is derived from it.
# Columns and labels:
# [1] = biological target: Nicotinic acetylcholine receptor alpha9/alpha10 (Rattus norvegicus, UniProt P43144+Q9JLB5); experiment: Antagonist activity at rat alpha9alpha10 nACh receptor expressed in Xenopus oocyte assessed as inhibition of acetylcholine-induced response at -70 mV holding potential by voltage-clamp based electrophysiological assay; format: cell-based
# Nicotinic acetylcholine receptor alpha9/alpha10, sequence (P43144 whole entry): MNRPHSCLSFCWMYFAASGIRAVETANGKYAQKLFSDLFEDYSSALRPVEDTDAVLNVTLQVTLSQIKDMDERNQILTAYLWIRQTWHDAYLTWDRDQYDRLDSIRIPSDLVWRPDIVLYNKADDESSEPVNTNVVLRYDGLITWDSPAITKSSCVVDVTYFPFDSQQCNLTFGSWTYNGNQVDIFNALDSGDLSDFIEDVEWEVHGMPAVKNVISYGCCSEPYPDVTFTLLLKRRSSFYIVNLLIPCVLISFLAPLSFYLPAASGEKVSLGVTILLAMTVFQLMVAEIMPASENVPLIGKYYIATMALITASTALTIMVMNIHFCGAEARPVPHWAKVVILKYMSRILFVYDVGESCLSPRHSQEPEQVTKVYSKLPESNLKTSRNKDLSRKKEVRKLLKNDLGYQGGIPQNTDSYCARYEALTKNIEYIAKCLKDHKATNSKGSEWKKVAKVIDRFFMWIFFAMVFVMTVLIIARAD
# Nicotinic acetylcholine receptor alpha9/alpha10, sequence (Q9JLB5 whole entry): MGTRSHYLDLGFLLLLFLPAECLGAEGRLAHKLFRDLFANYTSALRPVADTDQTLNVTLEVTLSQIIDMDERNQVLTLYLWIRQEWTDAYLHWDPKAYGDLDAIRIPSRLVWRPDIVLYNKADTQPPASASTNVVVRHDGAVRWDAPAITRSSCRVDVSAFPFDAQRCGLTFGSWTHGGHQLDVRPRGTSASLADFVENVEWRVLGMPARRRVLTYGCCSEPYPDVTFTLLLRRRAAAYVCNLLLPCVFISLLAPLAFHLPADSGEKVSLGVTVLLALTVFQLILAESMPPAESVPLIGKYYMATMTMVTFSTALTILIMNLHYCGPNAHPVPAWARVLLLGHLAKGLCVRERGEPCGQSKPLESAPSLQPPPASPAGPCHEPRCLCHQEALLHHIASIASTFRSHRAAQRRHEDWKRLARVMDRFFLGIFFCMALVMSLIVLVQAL
# [2] = biological target: Neuronal acetylcholine receptor subunit alpha-7 (Rattus norvegicus, UniProt Q05941); experiment: Antagonist activity at rat alpha7 nACh receptor expressed in Xenopus oocyte assessed as inhibition of acetylcholine-induced response at -70 mV holding potential by voltage-clamp based electrophysiological assay; format: cell-based
# Neuronal acetylcholine receptor subunit alpha-7, sequence (Q05941 whole entry): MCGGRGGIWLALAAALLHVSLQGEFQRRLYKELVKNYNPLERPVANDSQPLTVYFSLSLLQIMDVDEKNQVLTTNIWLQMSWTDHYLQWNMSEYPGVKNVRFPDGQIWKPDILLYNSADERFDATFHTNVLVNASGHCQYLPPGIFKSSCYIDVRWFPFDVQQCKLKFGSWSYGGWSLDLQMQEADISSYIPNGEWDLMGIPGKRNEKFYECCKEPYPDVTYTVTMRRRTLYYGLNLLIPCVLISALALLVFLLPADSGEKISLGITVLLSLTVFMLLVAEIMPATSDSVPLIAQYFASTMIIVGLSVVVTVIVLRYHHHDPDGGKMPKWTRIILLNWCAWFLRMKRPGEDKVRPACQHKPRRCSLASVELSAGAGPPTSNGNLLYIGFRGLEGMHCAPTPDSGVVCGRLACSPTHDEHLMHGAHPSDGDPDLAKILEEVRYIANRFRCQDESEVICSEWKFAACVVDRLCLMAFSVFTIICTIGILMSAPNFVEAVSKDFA
SMILES,IC50 [1] [nM],IC50 [2] [nM]
CC[C@H](C)[C@@H]1NC(=O)[C@H](CCCNC(=N)N)NC(=O)[C@H](CCCNC(=N)N)NC(=O)[C@@H](NC(=O)[C@H](Cc2ccc(O)cc2)NC(=O)[C@H](CCCNC(=N)N)NC(=O)[C@H](CCCNC(=N)N)NC(=O)[C@H](CCCNC(=N)N)NC(=O)[C@H](CCCNC(=N)N)NC(=O)[C@H](CC(=O)O)NC(=O)[C@H](Cc2ccc(O)cc2)NC(=O)[C@@H]2CCCN2C(=O)[C@@H](CO)NC(=O)[C@H](C)NC(=O)[C@@H]2CSSC[C@H](NC(=O)[C@@H](N)[C@@H](C)O)C(=O)N[C@@H](CCCNC(=N)N)C(=O)N[C@@H](CO)C(=O)N[C@@H](CO)C(=O)NCC(=O)N[C@@H](CCCNC(=N)N)C(=O)N[C@@H](Cc3ccc(O)cc3)C(=O)N2)CSSC[C@@H](C(=O)N[C@H](C(=O)O)C(C)C)NC(=O)[C@H](C)NC(=O)[C@H](CC(=O)O)NC(=O)[C@H]([C@@H](C)O)NC1=O,71,1910
CC[C@H](C)[C@@H]1NC(=O)[C@H](CCCNC(=N)N)NC(=O)[C@H](CCCNC(=N)N)NC(=O)[C@@H](NC(=O)[C@H](Cc2ccc(O)cc2)NC(=O)[C@H](CCCNC(=N)N)NC(=O)[C@H](CCCNC(=N)N)NC(=O)[C@H](CCCNC(=N)N)NC(=O)[C@H](CCCNC(=N)N)NC(=O)[C@H](CC(=O)O)NC(=O)[C@H](Cc2ccc(O)cc2)NC(=O)[C@@H]2CCCN2C(=O)[C@H](CO)NC(=O)[C@H](CCCNC(=N)N)NC(=O)[C@@H]2CSSC[C@H](NC(=O)[C@@H](N)[C@@H](C)O)C(=O)N[C@@H](CCCNC(=N)N)C(=O)N[C@@H](CO)C(=O)N[C@@H](CO)C(=O)NCC(=O)N[C@@H](CCCNC(=N)N)C(=O)N[C@@H](Cc3ccc(O)cc3)C(=O)N2)CSSC[C@@H](C(=O)N[C@@H](C)C(=O)O)NC(=O)[C@H](C)NC(=O)[C@H](CC(=O)O)NC(=O)[C@H]([C@@H](C)O)NC1=O,15,760
CC[C@H](C)[C@@H]1NC(=O)[C@H](CCCNC(=N)N)NC(=O)[C@H](CCCNC(=N)N)NC(=O)[C@@H](NC(=O)[C@H](C)NC(=O)[C@H](CCCNC(=N)N)NC(=O)[C@H](CCCNC(=N)N)NC(=O)[C@H](CCCNC(=N)N)NC(=O)[C@H](CCCNC(=N)N)NC(=O)[C@H](CC(=O)O)NC(=O)[C@H](Cc2ccc(O)cc2)NC(=O)[C@@H]2CCCN2C(=O)[C@H](CO)NC(=O)[C@H](CCCNC(=N)N)NC(=O)[C@@H]2CSSC[C@H](NC(=O)[C@@H](N)[C@@H](C)O)C(=O)N[C@@H](CCCNC(=N)N)C(=O)N[C@@H](CO)C(=O)N[C@@H](CO)C(=O)NCC(=O)N[C@@H](CCCNC(=N)N)C(=O)N[C@@H](Cc3ccc(O)cc3)C(=O)N2)CSSC[C@@H](C(=O)N[C@H](C(=O)O)C(C)C)NC(=O)[C@H](C)NC(=O)[C@H](CC(=O)O)NC(=O)[C@H]([C@@H](C)O)NC1=O,16,4620
CC[C@H](C)[C@@H]1NC(=O)[C@H](C)NC(=O)[C@H](CCCNC(=N)N)NC(=O)[C@@H]2CSSC[C@H](NC(=O)[C@H](Cc3ccc(O)cc3)NC(=O)[C@H](CCCNC(=N)N)NC(=O)CNC(=O)[C@H](CO)NC(=O)[C@H](CO)NC(=O)[C@H](CCCNC(=N)N)NC(=O)[C@@H](NC(=O)[C@@H](N)[C@@H](C)O)CSSC[C@@H](C(=O)N[C@H](C(=O)O)C(C)C)NC(=O)[C@H](C)NC(=O)[C@H](CC(=O)O)NC(=O)[C@H]([C@@H](C)O)NC1=O)C(=O)N[C@@H](CCCNC(=N)N)C(=O)N[C@@H](CO)C(=O)N1CCC[C@H]1C(=O)N[C@@H](Cc1ccc(O)cc1)C(=O)N[C@@H](CC(=O)O)C(=O)N[C@@H](CCCNC(=N)N)C(=O)N[C@@H](CCCNC(=N)N)C(=O)N[C@@H](CCCNC(=N)N)C(=O)N[C@@H](CCCNC(=N)N)C(=O)N[C@@H](Cc1ccc(O)cc1)C(=O)N2,185,> 10000
"CC[C@H](C)[C@@H]1NC(=O)[C@H](CCCNC(=N)N)NC(=O)[C@H](CCCNC(=N)N)NC(=O)[C@@H](NC(=O)[C@H](Cc2ccc(O)cc2)NC(=O)[C@H](CCCNC(=N)N)NC(=O)[C@H](CCCNC(=N)N)NC(=O)[C@H](CCCNC(=N)N)NC(=O)[C@H](CCCNC(=N)N)NC(=O)[C@H](CC(=O)O)NC(=O)[C@H](Cc2ccc(O)cc2)NC(=O)[C@@H]2CCCN2C(=O)[C@H](C)NC(=O)[C@H](CCCNC(=N)N)NC(=O)[C@@H]2CSSC[C@H](NC(=O)[C@@H](N)[C@@H](C)O)C(=O)N[C@@H](CCCNC(=N)N)C(=O)N[C@@H](CO)C(=O)N[C@@H](CO)C(=O)NCC(=O)N[C@@H](CCCNC(=N)N)C(=O)N[C@@H](Cc3ccc(O)cc3)C(=O)N2)CSSC[C@@H](C(=O)N[C@H](C(=O)O)C(C)C)NC(=O)[C@H](C)NC(=O)[C@H](CC(=O)O)NC(=O)[C@H]([C@@H](C)O)NC1=O (HELM PEPTIDE1{T.C.R.S.S.G.R.Y.C.R.A.P.Y.D.R.R.R.R.Y.C.R.R.I.T.D.A.C.V}$PEPTIDE1,PEPTIDE1,2:R3-9:R3|PEPTIDE1,PEPTIDE1,20:R3-27:R3$$$V2.0)",26,2060
CC[C@H](C)[C@@H]1NC(=O)[C@H](CCCNC(=N)N)NC(=O)[C@H](CCCNC(=N)N)NC(=O)[C@@H]2CSSC[C@H](NC(=O)[C@H](Cc3ccc(O)cc3)NC(=O)[C@H](CCCNC(=N)N)NC(=O)CNC(=O)[C@H](CO)NC(=O)[C@H](CO)NC(=O)[C@H](CCCNC(=N)N)NC(=O)[C@@H](NC(=O)[C@@H](N)[C@@H](C)O)CSSC[C@@H](C(=O)N[C@H](C(=O)O)C(C)C)NC(=O)[C@H](C)NC(=O)[C@H](CC(=O)O)NC(=O)[C@H]([C@@H](C)O)NC1=O)C(=O)N[C@@H](CCCNC(=N)N)C(=O)N[C@@H](CO)C(=O)N1CCC[C@H]1C(=O)N[C@@H](Cc1ccc(O)cc1)C(=O)N[C@@H](CC(=O)O)C(=O)N[C@@H](CCCNC(=N)N)C(=O)N[C@@H](CCCNC(=N)N)C(=O)N[C@@H](C)C(=O)N[C@@H](CCCNC(=N)N)C(=O)N[C@@H](Cc1ccc(O)cc1)C(=O)N2,58,> 10000
"CC[C@H](C)[C@@H]1NC(=O)[C@H](CCCNC(=N)N)NC(=O)[C@H](CCCNC(=N)N)NC(=O)[C@@H]2CSSC[C@H](NC(=O)[C@H](Cc3ccc(O)cc3)NC(=O)[C@H](C)NC(=O)CNC(=O)[C@H](CO)NC(=O)[C@H](CO)NC(=O)[C@H](CCCNC(=N)N)NC(=O)[C@@H](NC(=O)[C@@H](N)[C@@H](C)O)CSSC[C@@H](C(=O)N[C@H](C(=O)O)C(C)C)NC(=O)[C@H](C)NC(=O)[C@H](CC(=O)O)NC(=O)[C@H]([C@@H](C)O)NC1=O)C(=O)N[C@@H](CCCNC(=N)N)C(=O)N[C@@H](CO)C(=O)N1CCC[C@H]1C(=O)N[C@@H](Cc1ccc(O)cc1)C(=O)N[C@@H](CC(=O)O)C(=O)N[C@@H](CCCNC(=N)N)C(=O)N[C@@H](CCCNC(=N)N)C(=O)N[C@@H](CCCNC(=N)N)C(=O)N[C@@H](CCCNC(=N)N)C(=O)N[C@@H](Cc1ccc(O)cc1)C(=O)N2 (HELM PEPTIDE1{T.C.R.S.S.G.A.Y.C.R.S.P.Y.D.R.R.R.R.Y.C.R.R.I.T.D.A.C.V}$PEPTIDE1,PEPTIDE1,2:R3-27:R3|PEPTIDE1,PEPTIDE1,9:R3-20:R3$$$V2.0)",48,> 10000
CC[C@H](C)[C@@H]1NC(=O)[C@H](CCCNC(=N)N)NC(=O)[C@H](CCCNC(=N)N)NC(=O)[C@@H]2CSSC[C@H](NC(=O)[C@H](Cc3ccc(O)cc3)NC(=O)[C@H](CCCNC(=N)N)NC(=O)CNC(=O)[C@H](CO)NC(=O)[C@H](C)NC(=O)[C@H](CCCNC(=N)N)NC(=O)[C@@H](NC(=O)[C@@H](N)[C@@H](C)O)CSSC[C@@H](C(=O)N[C@H](C(=O)O)C(C)C)NC(=O)[C@H](C)NC(=O)[C@H](CC(=O)O)NC(=O)[C@H]([C@@H](C)O)NC1=O)C(=O)N[C@@H](CCCNC(=N)N)C(=O)N[C@@H](CO)C(=O)N1CCC[C@H]1C(=O)N[C@@H](Cc1ccc(O)cc1)C(=O)N[C@@H](CC(=O)O)C(=O)N[C@@H](CCCNC(=N)N)C(=O)N[C@@H](CCCNC(=N)N)C(=O)N[C@@H](CCCNC(=N)N)C(=O)N[C@@H](CCCNC(=N)N)C(=O)N[C@@H](Cc1ccc(O)cc1)C(=O)N2,17,4100
CC[C@H](C)[C@@H]1NC(=O)[C@H](CCCNC(=N)N)NC(=O)[C@H](CCCNC(=N)N)NC(=O)[C@@H]2CSSC[C@H](NC(=O)[C@H](Cc3ccc(O)cc3)NC(=O)[C@H](CCCNC(=N)N)NC(=O)CNC(=O)[C@H](CO)NC(=O)[C@H](CO)NC(=O)[C@H](CCCNC(=N)N)NC(=O)[C@@H](NC(=O)[C@@H](N)[C@@H](C)O)CSSC[C@@H](C(=O)N[C@H](C(=O)O)C(C)C)NC(=O)[C@H](C)NC(=O)[C@H](CC(=O)O)NC(=O)[C@H]([C@@H](C)O)NC1=O)C(=O)N[C@@H](CCCNC(=N)N)C(=O)N[C@@H](CO)C(=O)N1CCC[C@H]1C(=O)N[C@@H](Cc1ccc(O)cc1)C(=O)N[C@@H](CC(=O)O)C(=O)N[C@@H](CCCNC(=N)N)C(=O)N[C@@H](CCCNC(=N)N)C(=O)N[C@@H](CCCNC(=N)N)C(=O)N[C@@H](CCCNC(=N)N)C(=O)N[C@@H](C)C(=O)N2,38,7640
CC[C@H](C)[C@@H]1NC(=O)[C@H](CCCNC(=N)N)NC(=O)[C@H](CCCNC(=N)N)NC(=O)[C@@H](NC(=O)[C@H](Cc2ccc(O)cc2)NC(=O)[C@H](CCCNC(=N)N)NC(=O)[C@H](CCCNC(=N)N)NC(=O)[C@H](CCCNC(=N)N)NC(=O)[C@H](C)NC(=O)[C@H](CC(=O)O)NC(=O)[C@H](Cc2ccc(O)cc2)NC(=O)[C@@H]2CCCN2C(=O)[C@H](CO)NC(=O)[C@H](CCCNC(=N)N)NC(=O)[C@@H]2CSSC[C@H](NC(=O)[C@H](N)[C@H](C)O)C(=O)N[C@@H](CCCNC(=N)N)C(=O)N[C@@H](CO)C(=O)N[C@@H](CO)C(=O)NCC(=O)N[C@@H](CCCNC(=N)N)C(=O)N[C@@H](Cc3ccc(O)cc3)C(=O)N2)CSSC[C@@H](C(=O)N[C@H](C(=O)O)C(C)C)NC(=O)[C@H](C)NC(=O)[C@H](CC(=O)O)NC(=O)[C@H]([C@@H](C)O)NC1=O,32,3280
